Experimental data as given in patent publication US20260183396A1, “CXCR3 OVEREXPRESSION IN CAR-NK CELLS PRIMES MIGRATION/HOMING INTO THE TUMOR MICROENVIRONMENT” (DANA-FARBER CANCER INSTITUTE, INC., priority 2022, published 2026).

Experiments:
CXCR3 = target: T1, CXCR3 (Homo sapiens, UniProt P49682); test: CXCR3 surface expression after hCXCL10, flow cytometry; format: cell-based; details: NK cells, NK92, Jurkat; 200 ng hCXCL10
T1 construct: endogenous in cells; host or cells: primary NK cells (cNK, CIML); NK92 and JURKAT CXCR3+ lines; also CAR and CAR-CXCR3 transduced NK cells
T1 sequence (P49682 1-368): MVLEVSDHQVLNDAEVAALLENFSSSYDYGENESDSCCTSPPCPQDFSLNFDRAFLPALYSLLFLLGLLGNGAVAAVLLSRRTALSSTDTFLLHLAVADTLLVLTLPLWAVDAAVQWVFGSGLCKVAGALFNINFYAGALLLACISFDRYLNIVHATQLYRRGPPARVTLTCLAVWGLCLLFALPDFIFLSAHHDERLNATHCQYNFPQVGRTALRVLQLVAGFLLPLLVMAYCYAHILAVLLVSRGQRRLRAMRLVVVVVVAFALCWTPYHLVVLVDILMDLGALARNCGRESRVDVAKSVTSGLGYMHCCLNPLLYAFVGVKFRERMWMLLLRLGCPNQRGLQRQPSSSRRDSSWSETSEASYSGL
Procedure: CXCR3 is degraded from the cell surface of primary NK cells and the NK cell lines NK92 and […] both expressing CXCR3, after stimulation with 200 ng of recombinant human C—X—C Motif Chemokine Ligand 10 (hCXCL10) at different time points, as illustrated in FIG. 17A-FIG. 18B, measured by flow cytometry and expressed as median fluorescent intensity (MFI) of the CXCR3 receptor. CXCR3 is also degraded from CAR and CAR-CXCR expressing cNK cells. FIG. 18C-FIG. 18D illustrate CXCR3 surface expression as measured by flow cytometry of primary NK cells (cNK) expressing CAR, CAR-CXCR3 or control, stimulated with 200 ng of recombinant human CXCL10 stimulation at different time points (0 and 60 minutes). CXCR3 is degraded from cNK NT, CAR-cNK, and CAR-NK CXCR+ cell surfaces after 1 hour of hCXCL10 treatment (FIG. 19C). CXCR3 is also degraded from cytokine-induced memory-like (CIML) NK NT, CIML CAR-NK, CIML CAR-NK CXCR+ after 1 hour of hCXCL10 treatment (FIG. 19D).

STING = STING immunoblotting in NK cells and TILs; format: cell-based, human; details: NK cells
Procedure: Immunoblotting. […] Imaging of blots and was performed using the LI-COR Odyssey system.

NK cells [1] = test: Immune cell toxicity assays, NK cells; format: cell-based; details: 72 hours of high dose exposure; regardless of IL-2 or co-culture with TILs
Procedure: Immune Cell Toxicity Assays. […] Following treatment, samples were stained with anti-CD45, anti-CD3, anti-CD4, anti-CD8, and anti-CD56 antibodies (Table 1), as well as Zombie Green live/dead (Biolegend 423111) and analyzed by flow cytometry as described above. Data were analyzed using FlowJo software version 10.5.3. As an orthogonal measure of viability, CellTiter-Glo was performed on primary T-cells and NK cells.
CellTiter-Glo luminescent cell viability assay. Cell viability was assessed using the CellTiter-Glo Luminescent Cell Viability assay (Promega, G7571) according to manufacturer's instructions. […] All conditions were tested in triplicate and plates were read on a Tecan Infinite Mplex Microplate Reader.

MPM tumor cell lines = test: 3D vascular model of NK cell migration; format: cell-based, human
Procedure: 3D vascular model. To generate the tumor-vascular model, H226 spheroids were mixed with collagen rat tail hydrogel (2.5 mg/ml) and injected into the center gel region of the 3D microfluidic chamber (10-15 μL per each microfluidic chamber). After incubation for 30 minutes at 37° C. in sterile humidity chambers, the side wall of one flanked channel (media channel) was coated with a 150 μg/ml collagen solution in PBS to allow for better adhesion of eCs to the channel. After 15 mins, the channel was washed once with media. To create the 3D vessel, 25 μL cell suspension of 3×10^6 cells/ml human umbilical vein endothelial cells (HUVECs; C2519AS, Lonza) were injected in the media channel coated with collagen. The channel was rotated twice to create a confluent hollow-lumen 3D vessel. To allow the cells to attach to the media-gel interface and form a monolayer, the chip was incubated with cells face down for 15 mins. Next, 50 μL cell suspension was reinjected, and the chip was flipped to cover the upper part of the 3D vascular channel. After 90 mins of incubation in the humidity chamber at 37° C., cell culture media was gently added to both channels and further incubated to form a confluent monolayer. After vessel formation, NK cells (labelled with cell tracker) were added to the 3D vessel at 2:1 E:T ratio. […] NK cell migration+/−vessel was quantified at 24 hours. Image capture and analysis was performed using a fluorescence confocal microscope and processing software. The 3D vascular channels were rinsed in PBS and fixed with 4% PFA for 15 min at room temperature. Cell membranes were permeabilized with 0.1% Triton X-100 for 5 min at room temperature and washed twice with PBS. HUVEC cells were stained for F-actin with green phalloidin (Thermo Fisher Scientific A12379) and Hoechst 33342. Images were captured on a Nikon Eclipse 80i fluorescence microscope equipped with Z-stack (Prior) and CoolSNAP CCD camera (Roper Scientific).

NK cells [2] = details: systemic administration, murine models; related manuscript; cited from earlier work

With “hCXCL10: recombinant human C—X—C Motif Chemokine Ligand 10” the “CXCR3 cell surface expression” value (CXCR3) was “lost from the cell surface”.

With `CCN(CC)CCCC(C)Nc1ccnc2cc(Cl)ccc12` (stereo not drawn) [chloroquine] the “effect on ADU-S100 induced STING degradation” value (STING) was “prevented”.

With `Nc1ncnc2c1ncn2[C@@H]1O[C@@H]2CO[P@@](=O)(S)O[C@@H]3[C@H](O)[C@@H](CO[P@@](=O)(S)O[C@H]2[C@H]1F)O[C@H]3n1cc(F)c2c(=O)nc[nH]c21` [TAK-676] the “cytotoxicity in human NK cells” value (NK cells [1]) was “no significant cytotoxicity”, the “overcoming a human vascular barrier” value (MPM tumor cell lines; ex vivo model) was “especially potent” and the NK cell migration (MPM tumor cell lines; presence and absence of the vascular barrier) was “enhanced NK cell migration”. For the same compound, the “trafficking and activation of NK cells” value (NK cells [2]) was “enhanced”.
